These results are taken from ChEMBL document CHEMBL1201862, “PubChem BioAssay data set” (2004).

Among the test systems are SNB-78; DLD-1; KM-20L2; RXF 631; LXFL 529; HOP-18; DMS-114; DMS-273; XF498.
What all share (test): DTP human tumour cell line panel, 48 h

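The compound was tested at five concentrations on cells cultured in 96-well plates, with a 48-hour exposure period. At the GI50, growth is halved.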 The source made the active and inactive calls. Rule as the data show it: active = GI50 up to about 1.1 µM and inactive = higher. Bounds are passed on as bounds.

For orientation: GI50 means the concentration giving 50% growth inhibition. Consider `COCCOCOC(C)(C)[C@H](CCOC(C)=O)O[Si](c1ccccc1)(c1ccccc1)C(C)(C)C`, for which the GI50 in the assay on SNB-78 was 22.9 µM (inactive); in the assay on DLD-1, 13.5 µM (inactive); with KM-20L2 it was 18.7 µM (inactive); in the assay with RXF 631, 13.4 µM (inactive); in the assay with LXFL 529 it was 7.33 µM (inactive); in the assay on HOP-18 it was 30.3 µM (inactive). In addition, the figures for the GI50 in the assay with DMS-114 and with DMS-273 were 12.6 µM (inactive) and 5.3 µM (inactive), respectively.
With `O=C(O)CCC(=O)Oc1ccc(O)c2c1CCCC2=O`, the GI50 in the assay on SNB-78 was > 100 µM (inactive); in the assay with DLD-1 it was > 100 µM (inactive); in the assay on KM-20L2 it was > 100 µM (inactive); with LXFL 529 it was > 100 µM (inactive); in the assay on HOP-18, > 100 µM (inactive); in the assay with XF498 it was 0.316 µM (active). Also, the GI50 with DMS-114 and with DMS-273 was > 100 µM (inactive) each time.
As for `CC1(C)CC(=O)C(C(=O)Nc2cccs2)=C(O)C1`, the GI50 is 36.1 µM (inactive) in the assay on SNB-78; 39.5 µM (inactive) with DLD-1; 38.2 µM (inactive) with KM-20L2; 36.5 µM (inactive) in the assay with RXF 631; 31.8 µM (inactive) with LXFL 529; 21.6 µM (inactive) in the assay with HOP-18. Moreover, the GI50 in the assay with XF498 was 43 µM (inactive); in the assay on DMS-273 it was 25.2 µM (inactive).
With `CC1=C2[C@@H](c3ccccc3)C3C=CC2(c2ccccc23)N(C(=O)Nc2cccc3ccccc23)C1=O` (stereo partly drawn), the GI50 in the assay with SNB-78, in the assay with KM-20L2, with LXFL 529, with HOP-18, with XF498 and with DMS-114 was > 100 µM (inactive) each time. Besides, in the assay on DMS-273, the GI50 is > 100 µM (inactive).
In the case of `O=c1[nH]c(=O)n([C@H]2C[C@@H](CO)[C@@H](O)C2)cc1I`, the GI50 in the assay on SNB-78, with DLD-1, with KM-20L2, with LXFL 529, with HOP-18 and in the assay with DMS-114 was > 100 µM (inactive) each time. In addition, the GI50 in the assay with DMS-273 was > 100 µM (inactive).
In the case of `CCOC(=O)Nc1ccc2c(c1)N(C(=O)CCN(CC)CC)c1ccccc1S2` [ETHACIZINE], the GI50 in the assay on SNB-78 was 5.18 µM (inactive); with DLD-1, 29.1 µM (inactive); in the assay on KM-20L2, 19.3 µM (inactive); in the assay with LXFL 529, 19 µM (inactive); in the assay with HOP-18, 42 µM (inactive); in the assay on XF498, 18.1 µM (inactive). The GI50 in the assay on DMS-114 is 18.2 µM (inactive); in the assay on DMS-273, 27 µM (inactive).
Take `Cc1ccc(Nc2nc3c(s2)C(=O)c2ccccc2C3=O)c(C)c1`: the GI50 was 15.2 µM (inactive) with SNB-78; 15.1 µM (inactive) in the assay on DLD-1; 37.3 µM (inactive) with KM-20L2; 15 µM (inactive) with LXFL 529; 4.57 µM (inactive) in the assay on HOP-18; 17.3 µM (inactive) with XF498. In addition, the GI50 with DMS-114 was 8.59 µM (inactive); in the assay on DMS-273 it was 19.6 µM (inactive).
As to `CCOc1ccc(/C(C=O)=C(\Cl)c2ccc(OC)cc2)cc1`, the GI50 was > 100 µM (inactive) in the assay on SNB-78; > 100 µM (inactive) with DLD-1; > 100 µM (inactive) with KM-20L2; > 100 µM (inactive) in the assay on LXFL 529; 42.3 µM (inactive) with HOP-18; > 100 µM (inactive) in the assay on XF498. For the same compound, the figures for the GI50 in the assay with DMS-114 and in the assay on DMS-273 were 40.5 µM (inactive) and > 100 µM (inactive), respectively.
In the case of `O=C1NCC2=C1CCC1c3ccccc3CCN21` (stereo not drawn), the GI50 with SNB-78, in the assay with DLD-1, in the assay with KM-20L2, in the assay with LXFL 529, in the assay on XF498 and in the assay on DMS-114 was > 100 µM (inactive) each time. The GI50 in the assay on DMS-273 was > 100 µM (inactive).
On to `O=C(NCCCCCCNC(=O)OCCSCCn1cc(C(=O)NC(=O)OCc2ccccc2)c(=O)[nH]c1=O)OCCSCCn1cc(C(=O)NC(=O)OCc2ccccc2)c(=O)[nH]c1=O`, for which the GI50 in the assay on SNB-78, in the assay with DLD-1, in the assay with KM-20L2, in the assay with RXF 631, with LXFL 529 and with XF498 was > 100 µM (inactive) in each case. Also, the GI50 with DMS-114 and in the assay on DMS-273 was > 100 µM (inactive) each time.
Consider `COc1ccc2nc3ccccc3c(NCCCCCCN(C)CCCl)c2c1`, for which the GI50 was 0.33 µM (active) in the assay on SNB-78; 0.164 µM (active) in the assay with DLD-1; 0.172 µM (active) in the assay on KM-20L2; 0.262 µM (active) in the assay with LXFL 529; 0.2 µM (active) in the assay with XF498; 0.166 µM (active) in the assay with DMS-114. Also, in the assay on DMS-273, the GI50 is 0.0488 µM (active).
Take `CC(=O)O[C@H]1[C@@H]2[C@@H]3[C@@H](C[C@H]1C)[C@@H](C)CO[C@@]1(C)CC/C=C(/C)C[C@@H]2O[C@@H]31`: the GI50 in the assay on DLD-1, in the assay with KM-20L2, in the assay with RXF 631, with LXFL 529, in the assay with HOP-18 and in the assay with XF498 was > 100 µM (inactive) throughout. The GI50 in the assay with DMS-114 and in the assay with DMS-273 was > 100 µM (inactive) throughout.
For the compound `COc1ccc2c(c1)Oc1cc(O)ccc1[C@H]2c1ccccc1C(=O)NC(C)c1ccccc1` (stereo partly drawn), the GI50 in the assay on SNB-78 is 16.6 µM (inactive); in the assay with DLD-1, 18.2 µM (inactive); with KM-20L2 it was 19.1 µM (inactive); with LXFL 529, 15.3 µM (inactive); in the assay with DMS-114 it was 11.5 µM (inactive); in the assay with DMS-273, 14.5 µM (inactive).
With `Cc1cccc(NC(=O)/C(=N\N)C(c2cnc3ccc([N+](=O)[O-])cc3n2)[N+](=O)[O-])c1C` (stereo not drawn), the GI50 was > 100 µM (inactive) in the assay with DLD-1; 71.8 µM (inactive) with KM-20L2; > 100 µM (inactive) in the assay with RXF 631; > 100 µM (inactive) in the assay on LXFL 529; > 100 µM (inactive) in the assay on HOP-18; > 100 µM (inactive) in the assay with XF498. In addition, the GI50 in the assay with DMS-114 was 51.3 µM (inactive); in the assay on DMS-273 it was > 100 µM (inactive).
As for `Cc1ccc(-n2nc(C(OC3OC(CO)C(O)C(O)C3O)C(O)CO)c3nc4cc(C)c(C)cc4nc32)cc1` (stereo not drawn), the GI50 in the assay with SNB-78, in the assay on DLD-1, with KM-20L2, with RXF 631, in the assay on LXFL 529 and with XF498 was > 100 µM (inactive) throughout. Besides, the GI50 in the assay on DMS-114 is > 100 µM (inactive).
As to `O=C1NC(Cc2ccc(O)cc2)C(=O)N2CCCC12` (stereo not drawn), the GI50 in the assay with SNB-78, with DLD-1, in the assay with KM-20L2, in the assay on RXF 631, in the assay on LXFL 529 and in the assay with HOP-18 was > 100 µM (inactive) in each case. The GI50 with DMS-114 and in the assay with DMS-273 was > 100 µM (inactive) in each case.
As for `COc1ccc(/C=C2\CCC(Cc3ccccc3)(CN(C)C)C2=O)cc1` (stereo not drawn), the GI50 in the assay with SNB-78 is 35.5 µM (inactive); with DLD-1, 26.4 µM (inactive); in the assay with KM-20L2 it was 23.4 µM (inactive); with LXFL 529, 36.1 µM (inactive); with HOP-18, > 100 µM (inactive); in the assay on DMS-114, 18.2 µM (inactive). Further, in the assay with DMS-273, the GI50 was 15.2 µM (inactive).
Take `COc1ccc2nc(-c3ccc(O)cc3)ccc2c1`: the GI50 with SNB-78 is 97.1 µM (inactive); with DLD-1 it was > 100 µM (inactive); with KM-20L2 it was > 100 µM (inactive); in the assay on LXFL 529, > 100 µM (inactive); in the assay on HOP-18, > 100 µM (inactive); with DMS-114 it was > 100 µM (inactive).
As for `C[C@]12CCC(=O)C=C1CC[C@@H]1[C@@H]2C(=O)C[C@@]2(C)[C@H]1CC[C@]2(O)C(=O)CO` [CORTISONE], the GI50 in the assay on DLD-1, in the assay with KM-20L2, with LXFL 529, with HOP-18, in the assay on XF498 and in the assay with DMS-114 was > 100 µM (inactive) in each case. The GI50 in the assay on DMS-273 is > 100 µM (inactive).
With `CCCCCCCCC[C@@H]1CC(=O)OCC2OC(O[C@H](CCCCCCCCC)CC(=O)OCC3OC(O[C@H](CCCCCCCCC)CC(=O)OCC4OC(O1)C(O)C(O)C4O)C(O)C(O)C3O)C(O)C(O)C2O` (stereo partly drawn), the GI50 in the assay with SNB-78 is 17.3 µM (inactive); in the assay with DLD-1 it was 14 µM (inactive); in the assay with KM-20L2 it was 6.46 µM (inactive); with LXFL 529 it was 6.53 µM (inactive); in the assay on HOP-18 it was < 0.01 µM (active); in the assay on XF498, 7.74 µM (inactive). Also, the GI50 in the assay on DMS-114 is 8.89 µM (inactive); in the assay on DMS-273, 8.65 µM (inactive).
Turning to `COC(=O)C1=NC(=S)NC(c2ccccc2)C1c1nc2ccccc2s1` (stereo not drawn), the GI50 with SNB-78, with DLD-1, with KM-20L2, in the assay with RXF 631, in the assay on LXFL 529 and with HOP-18 was > 100 µM (inactive) throughout. In addition, the GI50 in the assay with DMS-114 and in the assay on DMS-273 was > 100 µM (inactive) each time.
For the compound `C[C@H]1CC[P+](Cc2ccccc2)(c2ccccc2)C1` (stereo partly drawn), the GI50 is > 100 µM (inactive) in the assay on DLD-1; 93.5 µM (inactive) with KM-20L2; 26.4 µM (inactive) with LXFL 529; > 100 µM (inactive) in the assay with HOP-18; < 0.01 µM (active) with XF498; 23 µM (inactive) in the assay with DMS-114. The GI50 in the assay on DMS-273 is > 100 µM (inactive).
For `CCN(CC)CC[n+]1ccc2c(C)c3[nH]c4ccc(O)cc4c3c(C)c2c1`, the GI50 was 3.5 µM (inactive) with SNB-78; 11.6 µM (inactive) in the assay with DLD-1; 8.47 µM (inactive) in the assay on KM-20L2; 2.5 µM (inactive) in the assay on LXFL 529; 4.23 µM (inactive) with HOP-18; 0.767 µM (active) in the assay on DMS-114. Also, the GI50 with DMS-273 is 2.92 µM (inactive).
As for `N#CC(/C(CCC(=O)Nc1ccc(Cl)cc1)=N/NC(=O)c1cc2ccccc2cc1O)c1ccccc1` (stereo not drawn), the GI50 in the assay on SNB-78 was 66.1 µM (inactive); in the assay with DLD-1, 33.7 µM (inactive); in the assay on KM-20L2, 28.6 µM (inactive); in the assay with LXFL 529, 43 µM (inactive); in the assay with HOP-18 it was 21.5 µM (inactive); in the assay with XF498, 54.8 µM (inactive). Also, the GI50 in the assay on DMS-114 was 25.4 µM (inactive).
